How the values were obtained:
[1] = Inhibition of NS5A in HCV genotype 2a J6 infected in human HuH7 replicon cells assessed as reduction in viral replication after 3 days by luciferase reporter gene assay
[2] = Inhibition of NS5A in HCV genotype 6a HK6 infected in human HuH7 replicon cells assessed as reduction in viral replication after 3 days by luciferase reporter gene assay
[3] = Inhibition of NS5A in HCV genotype 1a H77 infected in human HuH7 replicon cells assessed as reduction in viral replication after 3 days by luciferase reporter gene assay
[4] = Inhibition of NS5A in HCV genotype 1b Con1 infected in human HuH7 replicon cells assessed as reduction in viral replication after 3 days by luciferase reporter gene assay
[5] = Inhibition of NS5A in HCV genotype 3a S52 infected in human HuH7 replicon cells assessed as reduction in viral replication after 3 days by luciferase reporter gene assay
[6] = Inhibition of NS5A in HCV genotype 6e D88 infected in human HuH7 replicon cells assessed as reduction in viral replication after 3 days by luciferase reporter gene assay
[7] = Inhibition of NS5A in HCV genotype 2a JFH1 infected in human HuH7 replicon cells assessed as reduction in viral replication after 3 days by luciferase reporter gene assay
[8] = Inhibition of NS5A in HCV genotype 4a ED43 infected in human HuH7 replicon cells assessed as reduction in viral replication after 3 days by luciferase reporter gene assay
[9] = Inhibition of NS5A in HCV genotype 5a SA13 infected in human HuH7 replicon cells assessed as reduction in viral replication after 3 days by luciferase reporter gene assay
[10] = Inhibition of NS5A in HCV genotype 2b MD2b-1 infected in human HuH7 replicon cells assessed as reduction in viral replication after 3 days by luciferase reporter gene assay
[11] = Inhibition of NS5A in wild type HCV genotype 3a infected in human HuH7 replicon cells assessed as reduction in viral replication after 3 days by luciferase reporter gene assay
[12] = Inhibition of NS5A in wild type HCV genotype 1a infected in human HuH7 replicon cells assessed as reduction in viral replication after 3 days by luciferase reporter gene assay
[13] = Inhibition of NS5A in wild type HCV genotype 1b infected in human HuH7 replicon cells assessed as reduction in viral replication after 3 days by luciferase reporter gene assay
[14] = Inhibition of NS5A in HCV wild type genotype 2a infected in human HuH7 replicon cells assessed as reduction in viral replication after 3 days by luciferase reporter gene assay
[15] = Inhibition of NS5A Y93H mutant in HCV genotype 1b infected in human HuH7 replicon cells assessed as reduction in viral replication after 3 days by luciferase reporter gene assay
[16] = Inhibition of NS5A K44R mutant in HCV genotype 2a infected in human HuH7 replicon cells assessed as reduction in viral replication after 3 days by luciferase reporter gene assay
[17] = Inhibition of NS5A Q30R mutant in HCV genotype 1a infected in human HuH7 replicon cells assessed as reduction in viral replication after 3 days by luciferase reporter gene assay
[18] = Inhibition of NS5A Q30E mutant in HCV genotype 1a infected in human HuH7 replicon cells assessed as reduction in viral replication after 3 days by luciferase reporter gene assay
[19] = Inhibition of NS5A M28T mutant in HCV genotype 1a infected in human HuH7 replicon cells assessed as reduction in viral replication after 3 days by luciferase reporter gene assay
[20] = Inhibition of NS5A Q30H mutant in HCV genotype 1a infected in human HuH7 replicon cells assessed as reduction in viral replication after 3 days by luciferase reporter gene assay
[21] = Inhibition of NS5A L31M mutant in HCV genotype 1a infected in human HuH7 replicon cells assessed as reduction in viral replication after 3 days by luciferase reporter gene assay
[22] = Inhibition of NS5A Y93C mutant in HCV genotype 1a infected in human HuH7 replicon cells assessed as reduction in viral replication after 3 days by luciferase reporter gene assay
[23] = Inhibition of NS5A Y93H mutant in HCV genotype 1a infected in human HuH7 replicon cells assessed as reduction in viral replication after 3 days by luciferase reporter gene assay
[24] = Inhibition of NS5A N62V mutant in HCV genotype 2a infected in human HuH7 replicon cells assessed as reduction in viral replication after 3 days by luciferase reporter gene assay
[25] = Inhibition of NS5A N62S mutant in HCV genotype 2a infected in human HuH7 replicon cells assessed as reduction in viral replication after 3 days by luciferase reporter gene assay
[26] = Inhibition of NS5A R44K mutant in HCV genotype 2b infected in human HuH7 replicon cells assessed as reduction in viral replication after 3 days by luciferase reporter gene assay
[27] = Inhibition of NS5A A30K mutant in HCV genotype 3a infected in human HuH7 replicon cells assessed as reduction in viral replication after 3 days by luciferase reporter gene assay
[28] = Inhibition of NS5A Y93H mutant in HCV genotype 3a infected in human HuH7 replicon cells assessed as reduction in viral replication after 3 days by luciferase reporter gene assay
[29] = Inhibition of NS5A P58S mutant in HCV genotype 2b infected in human HuH7 replicon cells assessed as reduction in viral replication after 3 days by luciferase reporter gene assay
[30] = Inhibition of NS5A in wild type HCV genotype 2b MD2b-1 infected in human HuH7 replicon cells assessed as reduction in viral replication after 3 days by luciferase reporter gene assay
[31] = Inhibition of NS5A in wild type HCV genotype 2b AY232738 infected in human HuH7 replicon cells assessed as reduction in viral replication after 3 days by luciferase reporter gene assay
[32] = Inhibition of NS5A L31M mutant in HCV genotype 2a J6 (M31) infected in human HuH7 replicon cells assessed as reduction in viral replication after 3 days by luciferase reporter gene assay

COC(=O)N[C@H](C(=O)N1CC2(CC2)C[C@H]1c1nc(-c2ccc3c(c2)C(F)(F)c2cc(-c4ccc5[nH]c([C@@H]6[C@H]7CC[C@H](C7)N6C(=O)[C@@H](NC(=O)OC)C(C)C)nc5c4)ccc2-3)c[nH]1)C(C)C [CHEBI:85089]
EC50 [1]: 249 nM
EC50 [2]: 1.1 nM
EC50 [3]: 0.031 nM
EC50 [4]: 0.004 nM
EC50 [5]: 168 nM
EC50 [6]: 264 nM
EC50 [7]: 21 nM
EC50 [8]: 0.39 nM
EC50 [9]: 0.15 nM
EC50 [10]: 530 nM
EC50 [11]: > 45 nM
EC50 [12]: 0.031 nM
EC50 [13]: 0.004 nM
EC50 [14]: 209 nM
EC50 [15]: 7.2 nM
EC50 [16]: 164 nM
EC50 [17]: 20 nM
EC50 [18]: 169 nM
EC50 [19]: 1.9 nM
EC50 [20]: 5.7 nM
EC50 [21]: 17 nM
EC50 [22]: 50 nM
EC50 [23]: 52 nM
EC50 [24]: 222 nM
EC50 [25]: 123 nM
EC50 [26]: 943 nM
EC50 [27]: > 89 nM
EC50 [28]: > 89 nM
EC50 [29]: 292 nM
EC50 [30]: 865 nM
EC50 [31]: 211 nM

COC[C@H]1C[C@@H](c2nc(-c3ccc4c(c3)COc3cc5c(ccc6nc([C@@H]7CC[C@H](C)N7C(=O)[C@@H](NC(=O)OC)C(C)C)[nH]c65)cc3-4)c[nH]2)N(C(=O)[C@H](NC(=O)OC)c2ccccc2)C1 [GS-5816]
EC50 [1]: 0.016 nM
EC50 [2]: 0.006 nM
EC50 [3]: 0.014 nM
EC50 [4]: 0.016 nM
EC50 [5]: 0.004 nM
EC50 [6]: 0.13 nM
EC50 [7]: 0.008 nM
EC50 [8]: 0.009 nM
EC50 [9]: 0.054 nM
EC50 [10]: 0.006 nM
EC50 [11]: 0.013 nM
EC50 [12]: 0.014 nM
EC50 [13]: 0.016 nM
EC50 [14]: 0.009 nM
EC50 [15]: 0.011 nM
EC50 [16]: 0.005 nM
EC50 [17]: 0.031 nM
EC50 [18]: 0.25 nM
EC50 [19]: 0.105 nM
EC50 [20]: 0.032 nM
EC50 [21]: 0.22 nM
EC50 [22]: 0.053 nM
EC50 [23]: 8.5 nM
EC50 [24]: 0.01 nM
EC50 [25]: 0.003 nM
EC50 [26]: 0.011 nM
EC50 [27]: 0.21 nM
EC50 [28]: 3.2 nM
EC50 [29]: 0.01 nM
EC50 [30]: 0.004 nM
EC50 [31]: 0.007 nM
EC50 [32]: 0.016 nM
